In patent US20230181536A1, “ANTICANCER COMBINATION THERAPY WITH N-(1-ACRYLOYL-AZETIDIN-3-YL)-2-((1H-INDAZOL-3-YL)AMINO)METHYL)-1H-IMIDAZOLE-5-CARBOXAMIDE INHIBITOR OF KRAS-G12C” (TAIHO PHARMACEUTICAL CO., LTD., priority 2020, published 2023):

target: T1, KRAS G12C (Homo sapiens, UniProt P01116, G12C); experiment: Inhibitory activity on the KRAS G12C nucleotide (GDP-GTP) exchange reaction; format: biochemical; conditions: Bodipy FL GDP-bound KRAS G12C 25 nM; preincubation at 25° C. for 4 hours; SOS1 100 nM, GppNHp 1 μM, reaction for 30 minutes
T1 construct: KRAS G12C (amino acid region: 1-169)
T1 sequence (P01116 1-169 isoform P01116-2 G12C): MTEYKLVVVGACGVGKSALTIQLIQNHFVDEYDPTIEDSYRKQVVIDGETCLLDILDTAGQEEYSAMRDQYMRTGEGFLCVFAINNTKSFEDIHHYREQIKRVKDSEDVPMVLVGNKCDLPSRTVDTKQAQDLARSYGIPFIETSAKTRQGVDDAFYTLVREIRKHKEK
Description: Test Example 2: Evaluation of Inhibitory Activity of Compounds on the KRAS G12C Nucleotide (GDP-GTP) Exchange Reaction
The inhibitory activity of compounds on the exchange reaction of GDP into GppNHp in Bodipy (trademark) FL-bound KRAS G12C was examined by fluorescence measurement using human recombinant KRAS G12C and SOS1 proteins.
For the preparation of KRAS G12C to which Bodipy FL GDP was bound, first, 50 µM KRAS G12C (amino acid region: 1-169) and 1 mM Bodipy FL GDP (Invitrogen, G22360) were incubated for 1 hour in a buffer (20 mM Tris-HCl (pH 7.5), 50 mM NaCl, 1 mM DTT) in ice in the presence of 2.5 mM EDTA. Thereafter, MgCl2 with a final concentration of 10 mM was added, and the mixture was incubated at room temperature for 30 minutes. The protein was allowed to pass through a NAP-5 column to remove free nucleotides and was used for compound evaluation.
For the measurement of the inhibitory activity of compounds on nucleotide exchange reaction, first, the compound of the disclosure was diluted stepwise with dimethyl sulfoxide (DMSO). Subsequently, a solution of the gradually diluted compound of the disclosure in DMSO (the final concentration of DMSO: 5%) and KRAS G12C (25 nM) bound to Bodipy FL GDP were added to a reaction buffer (20 mM Tris-HCl (pH 7.5), 100 mM NaCl, 1 mM MgCl2, 2 mM DTT, 0.1% Tween20), followed by preincubation at 25° C. for 4 hours. Thereafter, Son of Sevenless Homolog 1 (SOS1, amino acid region: 564-1049) and GppNHp (GMPPNP, Jena Bioscience GmbH, NU-401-50) were added such that their final concentration was 100 nM and 1 μM respectively, followed by reaction for 30 minutes. The change in fluorescence intensity of Bodipy FL (excitation wavelength: 485 nm, fluorescence wavelength: 520 nm) immediately after the start of reaction and after 30 minutes from the start of reaction was standardized. The signal value for only DMSO was determined to be 0% inhibition, and the signal value for no addition of GppNHp was determined to be 100% inhibition. The compound concentration at which 50% inhibition is achieved was determined to be the IC50 (nM) and was calculated.

Compound	IC50 [nM]
C=CC(=O)N1CC(NC(=O)c2c(C)nc(CNc3n[nH]c4cc(Cl)c(C(C)(C)C)cc34)n2C(F)F)C1 [Example 21, N-(1-acryloylazetidin-3-yl)-2-(((5-(tert-butyl)-6-chloro-1H-indazol-3-yl)amino)methyl)-1-(difluoromethyl)-4-methyl-1H-imidazole-5-carboxamide]	58
C=CC(=O)N1CC(NC(=O)c2c(C)nc(CNc3n[nH]c4cc(Cl)c(C(C)(C)C)cc34)n2CC(F)(F)F)C1 [Example 22, N-(1-acryloylazetidin-3-yl)-2-(((5-(tert-butyl)-6-chloro-1H-indazol-3-yl)amino)methyl)-4-methyl-1-(2,2,2-trifluoroethyl)-1H-imidazole-5-carboxamide]	55
C=CC(=O)N1CC(NC(=O)c2c(C)nc(CNc3n[nH]c4cc(Cl)c(C(C)(C)C)cc34)n2C2CC2)C1 [Example 23, N-(1-acryloylazetidin-3-yl)-2-(((5-(tert-butyl)-6-chloro-1H-indazol-3-yl)amino)methyl)-1-cyclopropyl-4-methyl-1H-imidazole-5-carboxamide]	7
C=CC(=O)N1CC(NC(=O)c2c(C)nc(CNc3n[nH]c4cc(Cl)c(C(C)(C)C)cc34)n2C(C)(C)C)C1 [Example 24, N-(1-acryloylazetidin-3-yl)-1-(tert-butyl)-2-(((5-(tert-butyl)-6-chloro-1H-indazol-3-yl)amino)methyl)-4-methyl-1H-imidazole-5-carboxamide]	35
C=CC(=O)N1CC(NC(=O)c2c(C(F)(F)F)nc(CNc3n[nH]c4cc(Cl)c(C(C)(C)C)cc34)n2C)C1 [Example 25, N-(1-acryloylazetidin-3-yl)-2-(((5-(tert-butyl)-6-chloro-1H-indazol-3-yl)amino)methyl)-1-methyl-4-(trifluoromethyl)-1H-imidazole-5-carboxamide]	163
C=CC(=O)N1CC(NC(=O)c2c(I)nc(CNc3n[nH]c4cc(Cl)c(C(C)(C)C)cc34)n2C)C1 [Example 26, N-(1-acryloylazetidin-3-yl)-2-(((5-(tert-butyl)-6-chloro-1H-indazol-3-yl)amino)methyl)-4-iodo-1-methyl-1H-imidazole-5-carboxamide]	69
C=CC(=O)N1CC(NC(=O)c2c(Br)nc(CNc3n[nH]c4cc(Cl)c(C(C)(C)C)cc34)n2C)C1 [Example 27, N-(1-acryloylazetidin-3-yl)-4-bromo-2-(((5-(tert-butyl)-6-chloro-1H-indazol-3-yl)amino)methyl)-1-methyl-1H-imidazole-5-carboxamide]	8
C=CC(=O)N1CC(NC(=O)c2c(C#N)nc(CNc3n[nH]c4cc(Cl)c(C(C)(C)C)cc34)n2C)C1 [Example 28, N-(1-acryloylazetidin-3-yl)-2-(((5-(tert-butyl)-6-chloro-1H-indazol-3-yl)amino)methyl)-4-cyano-1-methyl-1H-imidazole-5-carboxamide]	70
C=CC(=O)N1CC(NC(=O)c2c(Cl)nc(CNc3n[nH]c4cc(Cl)c(C(C)(C)C)cc34)n2C)C1 [Example 29, N-(1-acryloylazetidin-3-yl)-2-(((5-(tert-butyl)-6-chloro-1H-indazol-3-yl)amino)methyl)-4-chloro-1-methyl-1H-imidazole-5-carboxamide]	6
C=CC(=O)N1CC(NC(=O)c2c(F)nc(CNc3n[nH]c4cc(Cl)c(C(C)(C)C)cc34)n2C)C1 [Example 30, N-(1-acryloylazetidin-3-yl)-2-(((5-(tert-butyl)-6-chloro-1H-indazol-3-yl)amino)methyl)-4-fluoro-1-methyl-1H-imidazole-5-carboxamide]	11
C=CC(=O)N1CC(NC(=O)c2c(CC)nc(CNc3n[nH]c4cc(Cl)c(C(C)(C)C)cc34)n2C)C1 [Example 31, N-(1-acryloylazetidin-3-yl)-2-(((5-(tert-butyl)-6-chloro-1H-indazol-3-yl)amino)methyl)-4-ethyl-1-methyl-1H-imidazole-5-carboxamide]	642
C=CC(=O)N1CC(NC(=O)c2c(C(F)(F)F)nc(CNc3n[nH]c4cc(Cl)c(C(C)(C)C)cc34)n2C(C)C)C1 [Example 32, N-(1-acryloylazetidin-3-yl)-2-(((5-(tert-butyl)-6-chloro-1H-indazol-3-yl)amino)methyl)-1-isopropyl-4-(trifluoromethyl)-1H-imidazole-5-carboxamide]	50
C=CC(=O)N1CC(NC(=O)c2c(C(F)F)nc(CNc3n[nH]c4cc(Cl)c(C(C)(C)C)cc34)n2C(C)C)C1 [Example 33, N-(1-acryloylazetidin-3-yl)-2-(((5-(tert-butyl)-6-chloro-1H-indazol-3-yl)amino)methyl)-4-(difluoromethyl)-1-isopropyl-1H-imidazole-5-carboxamide]	13
C=CC(=O)N1CC(NC(=O)c2c(F)nc(CNc3n[nH]c4cc(Cl)c(C(C)(C)C)cc34)n2C(C)C)C1 [Example 34, N-(1-acryloylazetidin-3-yl)-2-(((5-(tert-butyl)-6-chloro-1H-indazol-3-yl)amino)methyl)-4-fluoro-1-isopropyl-1H-imidazole-5-carboxamide]	13
C=CC(=O)N1CC(NC(=O)c2c(Cl)nc(CNc3n[nH]c4cc(Cl)c(C(C)(C)C)cc34)n2C(C)C)C1 [Example 35, N-(1-acryloylazetidin-3-yl)-2-(((5-(tert-butyl)-6-chloro-1H-indazol-3-yl)amino)methyl)-4-chloro-1-isopropyl-1H-imidazole-5-carboxamide]	8
[2H]C([2H])(Nc1n[nH]c2cc(Cl)c(C(C)(C)C)cc12)c1nc(C(F)F)c(C(=O)NC2CN(C(=O)C=C)C2)n1C(C)C [Example 36, N-(1-acryloylazetidin-3-yl)-2-(((5-(tert-butyl)-6-chloro-1H-indazol-3-yl)amino)methyl-d2)-4-(difluoromethyl)-1-isopropyl-1H-imidazole-5-carboxamide]	19
C=CC(=O)N1CC(NC(=O)c2cnc(CNc3n[nH]c4cc(Cl)c(C)cc34)n2C)C1 [Example 37, N-(1-acryloylazetidin-3-yl)-2-(((6-chloro-5-methyl-1H-indazol-3-yl)amino)methyl)-1-methyl-1H-imidazole-5-carboxamide]	5480
C=CC(=O)N1CC(NC(=O)c2cnc(CNc3n[nH]c4cc(Cl)c(C=C)cc34)n2C)C1 [Example 38, N-(1-acryloylazetidin-3-yl)-2-(((6-chloro-5-vinyl 1H-indazol-3-yl)amino)methyl)-1-methyl-1H-imidazole-5-carboxamide]	2170
C=CC(=O)N1CC(NC(=O)c2cnc(CNc3n[nH]c4cc(Cl)c(CC)cc34)n2C)C1 [Example 39, N-(1-acryloylazetidin-3-yl)-2-(((6-chloro-5-ethyl-1H-indazol-3-yl)amino)methyl)-1-methyl-1H-imidazole-5-carboxamide]	870
C=CC(=O)N1CC(NC(=O)c2cnc(CNc3n[nH]c4cc(Cl)c(C(C)(C)C)nc34)n2C)C1 [Example 40, N-(1-acryloylazetidin-3-yl)-2-(((5-(tert-butyl)-6-chloro-1H-pyrazolo[4,3-b]pyridin-3-yl)amino)methyl)-1-methyl-1H-imidazole-5-carboxamide]	27
C=CC(=O)N1CC(NC(=O)c2c(C)nc(CNc3n[nH]c4cc(C)c(C(C)(C)C)cc34)n2C)C1 [Example 41, N-(1-acryloylazetidin-3-yl)-2-(((5-(tert-butyl)-6-methyl-1H-indazol-3-yl)amino)methyl)-1,4-dimethyl-1H-imidazole-5-carboxamide]	14
